From ChEMBL document CHEMBL1141570, “Glycosidase profiling with immobilised glycosidase-inhibiting iminoalditols--a proof-of-concept study” (Bioorg Med Chem Lett, 2008) come the findings set out here.

A word on the pKi: it is the negative decadic logarithm of the Ki, by convention in mol/L. Read a low pKi as a high Ki.

pKi: −log10 of the molar value.

In this assay the target is T1, Beta-glucosidase (Agrobacterium sp. ATCC 21400, UniProt P12614).
T1 sequence (P12614 whole entry): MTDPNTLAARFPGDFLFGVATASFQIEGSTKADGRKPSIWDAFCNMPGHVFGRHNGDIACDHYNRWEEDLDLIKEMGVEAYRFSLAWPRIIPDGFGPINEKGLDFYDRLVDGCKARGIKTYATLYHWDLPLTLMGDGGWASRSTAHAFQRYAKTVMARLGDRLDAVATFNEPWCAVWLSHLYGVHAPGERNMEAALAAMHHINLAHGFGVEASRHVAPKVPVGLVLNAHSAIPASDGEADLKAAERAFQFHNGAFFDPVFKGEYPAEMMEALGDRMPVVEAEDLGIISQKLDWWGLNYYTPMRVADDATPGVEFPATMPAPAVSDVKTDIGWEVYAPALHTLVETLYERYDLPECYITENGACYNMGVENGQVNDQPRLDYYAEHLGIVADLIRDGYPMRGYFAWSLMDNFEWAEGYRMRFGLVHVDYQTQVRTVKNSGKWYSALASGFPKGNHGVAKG
Briefly: Inhibition of Agrobacterium sp. beta-glucosidase.
In turn, `COC(=O)CCCCCNC(=O)CCCCCN1[C@H](CO)[C@@H](O)[C@H](O)[C@H]1CNS(=O)(=O)c1cccc2c(N(C)C)cccc12` showed a pKi of 6.05. The same measure for `COC(=O)CCCCCNC(=O)[C@H](CCCCN1C[C@@H](O)[C@@H](O)[C@H](O)[C@H]1CO)NS(=O)(=O)c1cccc2c(N(C)C)cccc12`: 3.00; for `COC(=O)CCCCCNC(=O)[C@H](CCCCN1C[C@H](O)[C@@H](O)[C@H](O)[C@H]1CO)NS(=O)(=O)c1cccc2c(N(C)C)cccc12`: 5.21.
